# Data published in patent US8975417B2, “Pyrazolopyrrolidine derivatives and their use in the treatment of disease” (Novartis AG, priority 2013, dated 2015).
# Experiments:
# His-Brd3(20-477) = His-Brd3(20-477) (Homo sapiens (Human), UniProt Q15059); assay: TR-FRET in-vitro binding assay for BRD3; conditions: biochemical
# How it was run: (§1)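 His-tagged BRD2(60-472), BRD3(20-477) or BRD4(44-477), 45 nM in dispensing solution, with 60 nM tetra-acetylated histone H4 peptide (AcK5/8/12/16) in dispensing solution; HEPES pH 7.5, 50 mM NaCl, 0.1% BSA, 30 °C, 35 min. Eu-anti-His6 antibody plus streptavidin-APC added for TR-FRET read-out; 8-point compound dilutions.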
# His-Brd4(44-477) = His-Brd4(44-477) (Homo sapiens (Human), UniProt O60885); assay: TR-FRET in-vitro binding assay for BRD4; conditions: biochemical
# How it was run: as §1
# THP-1 cells = assay: Cell growth inhibition assay (CellTiter-Glo), THP-1; assay type: cell-based; conditions: Homo sapiens, read-out: THP-1 TGI
# How it was run: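 Dose-response over 3-fold dilutions from 10 μM; 0.1% DMSO control. Endpoint: CellTiter-Glo ATP signal, background-subtracted and day 0-corrected.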
# His-Brd2(60-472) = His-Brd2(60-472) (Homo sapiens (Human), UniProt P25440); assay: TR-FRET in-vitro binding assay for BRD2; conditions: biochemical
# Chain of His-Brd2(60-472) (P25440 60-472): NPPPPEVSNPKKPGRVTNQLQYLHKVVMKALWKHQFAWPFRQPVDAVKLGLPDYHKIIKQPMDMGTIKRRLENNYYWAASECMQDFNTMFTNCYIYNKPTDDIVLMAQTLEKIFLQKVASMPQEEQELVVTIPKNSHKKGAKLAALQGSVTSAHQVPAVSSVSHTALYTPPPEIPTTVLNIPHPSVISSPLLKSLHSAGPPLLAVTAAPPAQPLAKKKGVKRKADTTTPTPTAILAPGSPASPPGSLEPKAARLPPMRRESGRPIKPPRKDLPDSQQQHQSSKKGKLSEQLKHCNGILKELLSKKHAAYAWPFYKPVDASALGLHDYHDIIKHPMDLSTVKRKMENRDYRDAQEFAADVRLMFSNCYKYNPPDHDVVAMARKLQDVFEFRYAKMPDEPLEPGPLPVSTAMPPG
# How it was run: as §1
# Chain of His-Brd3(20-477) (Q15059 20-477): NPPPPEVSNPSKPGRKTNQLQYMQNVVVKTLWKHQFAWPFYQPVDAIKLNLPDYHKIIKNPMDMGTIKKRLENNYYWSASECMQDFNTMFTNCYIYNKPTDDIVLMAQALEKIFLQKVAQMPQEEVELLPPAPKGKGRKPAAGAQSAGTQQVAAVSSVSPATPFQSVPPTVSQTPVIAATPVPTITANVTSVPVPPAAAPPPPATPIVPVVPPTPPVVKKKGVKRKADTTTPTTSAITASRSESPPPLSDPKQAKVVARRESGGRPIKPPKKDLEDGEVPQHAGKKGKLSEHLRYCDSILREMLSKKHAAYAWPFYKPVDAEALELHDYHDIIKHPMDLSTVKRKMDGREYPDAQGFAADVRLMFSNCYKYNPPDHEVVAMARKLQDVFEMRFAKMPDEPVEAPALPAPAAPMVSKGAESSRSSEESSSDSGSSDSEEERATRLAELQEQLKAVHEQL
Compound,IC50 (His-Brd3(20-477)) [nM],IC50 (His-Brd4(44-477)) [nM],IC50 (His-Brd2(60-472)) [nM],IC (total growth inhibition) (THP-1 cells) [µM]
"CCn1nc2c(c1C)C(c1ccc(Cl)cc1)N(c1cc(C)c3nnc(C)n3c1)C2=O (stereo not shown) [Example 115, 4-(4-chlorophenyl)-5-(3,8-dimethyl-[1,2,4]triazolo[4,3-a]pyridin-6-yl)-2-ethyl-3-methyl-4,5-dihydropyrrolo[3,4-c]pyrazol-6(2H)-one]",46,43,48,0.0712
"CCn1nc(C)c2c1C(=O)N(c1cc(C)c3nnc(C)n3c1)C2c1ccc(Cl)cc1 (stereo not shown) [Example 116, 4-(4-chlorophenyl)-5-(3,8-dimethyl-[1,2,4]triazolo[4,3-a]pyridin-6-yl)-1-ethyl-3-methyl-4,5-dihydropyrrolo[3,4-c]pyrazol-6(1H)-one]",32,32,36,0.0354
"Cc1cc(N2C(=O)c3c(c(C4CC4)nn3-c3ccnn3C)C2c2ccc(Cl)cc2)cn2c(C)nnc12 (stereo not shown) [Example 117, 4-(4-chlorophenyl)-3-cyclopropyl-5-(3,8-dimethyl-[1,2,4]triazolo[4,3-a]pyridin-6-yl)-1-(1-methyl-1H-pyrazol-5-yl)-4,5-dihydropyrrolo[3,4-c]pyrazol-6(1H)-one]",38,39,34,0.0671
"Cc1nn(-c2ccnn2C)c2c1[C@@H](c1ccc(Cl)cc1)N(c1cc(C)c(=O)n(C)c1)C2=O [Example 120, (R)-4-(4-chlorophenyl)-5-(1,5-dimethyl-6-oxo-1,6-dihydropyridin-3-yl)-3-methyl-1-(1-methyl-1H-pyrazol-5-yl)-4,5-dihydropyrrolo[3,4-c]pyrazol-6(1H)-one]",83,55,78,0.165
"Cc1nn(-c2ccnn2C)c2c1[C@H](c1ccc(Cl)cc1)N(c1cc(C)c(=O)n(C)c1)C2=O [Example 121, (S)-4-(4-chlorophenyl)-5-(1,5-dimethyl-6-oxo-1,6-dihydropyridin-3-yl)-3-methyl-1-(1-methyl-1H-pyrazol-5-yl)-4,5-dihydropyrrolo[3,4-c]pyrazol-6(1H)-one]",5400,4000,5300,5.03
"Cc1nn(-c2ccnn2C)c2c1[C@H](c1ccc(Cl)cc1)N(c1cc(C)c3nnc(C)n3c1)C2=O [Example 124, (S)-4-(4-chlorophenyl)-5-(3,8-dimethyl-[1,2,4]triazolo[4,3-a]pyridin-6-yl)-3-methyl-1-(1-methyl-1H-pyrazol-5-yl)-4,5-dihydropyrrolo[3,4-c]pyrazol-6(1H)-one]",37000,25000,29000,1.54
"Cc1nn(-c2ccnn2C)c2c1[C@@H](c1ccc(Cl)cc1)N(c1cc(C)c3nnc(C)n3c1)C2=O [Example 125, (R)-4-(4-chlorophenyl)-5-(3,8-dimethyl-[1,2,4]triazolo[4,3-a]pyridin-6-yl)-3-methyl-1-(1-methyl-1H-pyrazol-5-yl)-4,5-dihydropyrrolo[3,4-c]pyrazol-6(1H)-one]",32,25,32,0.0473
"COc1ncccc1-n1nc(C)c2c1C(=O)N(c1cc(C)c(=O)n(C)c1)[C@H]2c1ccc(Cl)cc1 [Example 127, (S)-4-(4-chlorophenyl)-5-(1,5-dimethyl-6-oxo-1,6-dihydropyridin-3-yl)-1-(2-methoxypyridin-3-yl)-3-methyl-4,5-dihydropyrrolo[3,4-c]pyrazol-6(1H)-one]",5100,5700,4400,> 10
"COc1ncccc1-n1nc(C)c2c1C(=O)N(c1cc(C)c(=O)n(C)c1)[C@@H]2c1ccc(Cl)cc1 [Example 128, (R)-4-(4-chlorophenyl)-5-(1,5-dimethyl-6-oxo-1,6-dihydropyridin-3-yl)-1-(2-methoxypyridin-3-yl)-3-methyl-4,5-dihydropyrrolo[3,4-c]pyrazol-6(1H)-one]",37,36,30,0.107
"Cc1nn(C2COC2)c2c1C(c1ccc(Cl)cc1)N(c1cc(C)c(=O)n(C)c1)C2=O (stereo not shown) [Example 135, 4-(4-chlorophenyl)-5-(1,5-dimethyl-6-oxo-1,6-dihydropyridin-3-yl)-3-methyl-1-(oxetan-3-yl)-4,5-dihydropyrrolo[3,4-c]pyrazol-6(1H)-one]",130,140,150,0.2
"Cc1cc(N2C(=O)c3nn(C4COC4)c(C)c3C2c2ccc(Cl)cc2)cn2c(C)nnc12 (stereo not shown) [Example 136, 4-(4-chlorophenyl)-5-(3,8-dimethyl-[1,2,4]triazolo[4,3-a]pyridin-6-yl)-3-methyl-2-(oxetan-3-yl)-4,5-dihydropyrrolo[3,4-c]pyrazol-6(2H)-one]",130,110,140,0.186

# The next lines start with results.
IC50 (His-Brd3(20-477)) [nM],IC50 (His-Brd4(44-477)) [nM],IC50 (His-Brd2(60-472)) [nM],Compound,IC (total growth inhibition) (THP-1 cells) [µM]
24,17,32,"COc1ncccc1-n1nc(C)c2c1C(=O)N(c1cc(C)c3nnc(C)n3n1)C2c1ccc(Cl)cc1 (stereo not shown) [Example 111, 4-(4-chlorophenyl)-5-(3,8-dimethyl-[1,2,4]triazolo[4,3-b]pyridazin-6-yl)-1-(2-methoxypyridin-3-yl)-3-methyl-4,5-dihydropyrrolo[3,4-c]pyrazol-6(1H)-one]",0.0484
> 37000,> 37000,> 37000,"Cc1nn(C2CC2)c2c1C(c1ccc(Cl)cc1)N(c1cc(N(C)C(=O)OC(C)(C)C)c3nnc(C)n3n1)C2=O (stereo not shown) [Example 112, tert-butyl (6-(4-(4-chlorophenyl)-1-cyclopropyl-3-methyl-6-oxopyrrolo[3,4-c]pyrazol-5(1H,4H,6H)-yl)-3-methyl-[1,2,4]triazolo[4,3-b]pyridazin-8-yl)(methyl)carbamate]",3.17
37,27,35,"Cc1nn(-c2ccnn2C)c2c1C(c1ccc(Cl)cc1)N(c1cc(C)c3nnc(C)n3n1)C2=O (stereo not shown) [Example 114, 4-(4-chlorophenyl)-5-(3,8-dimethyl-[1,2,4]triazolo[4,3-b]pyridazin-6-yl)-3-methyl-1-(1-methyl-1H-pyrazol-5-yl)-4,5-dihydropyrrolo[3,4-c]pyrazol-6(1H)-one]",0.0765
52,36,46,"Cc1cc(N2C(=O)c3c(c(CO)nn3C3CC3)C2c2ccc(Cl)cc2)cn2c(C)nnc12 (stereo not shown) [Example 131, 4-(4-chlorophenyl)-1-cyclopropyl-5-(3,8-dimethyl-[1,2,4]triazolo[4,3-a]pyridin-6-yl)-3-(hydroxymethyl)-4,5-dihydropyrrolo[3,4-c]pyrazol-6(1H)-one]",0.119
100,80,92,"Cc1nn(C2COC2)c2c1C(c1ccc(Cl)cc1)N(c1cc(C)c3nnc(C)n3c1)C2=O (stereo not shown) [Example 137, 4-(4-chlorophenyl)-5-(3,8-dimethyl-[1,2,4]triazolo[4,3-a]pyridin-6-yl)-3-methyl-1-(oxetan-3-yl)-4,5-dihydropyrrolo[3,4-c]pyrazol-6(1H)-one]",0.116
